Measured values from paper PMC6093650, “Antidepressive and anxiolytic effects of ostruthin, a TREK-1 channel activator” (PLoS ONE, 2018).

What was measured:
[1] = test system: mice anxiety-like behavior; experiment: elevated plus maze; assay type: in vivo; details: amlodipine experiment: single compound vs PBS, ostruthin 5 mg/kg or amlodipine 10 mg/kg, n = 6
Excerpt: (§1) Male ICR mice (n = 317 in total) aged 5 weeks and weighing 32 ± 2 g were purchased from Shimizu Laboratory Supplies (Kyoto, Japan). For the social defeat stress test, we used 28 C57BL/6J mice (5 weeks old, Shimizu Laboratory Supplies) and 30 ICR mice (7–8 weeks old, Charles River Labs Japan, Yokohama, Kanagawa, Japan). Mice were maintained for at least 1 week prior to experiments. Animals were kept in groups in plastic cages. They had free access to food and water, and were kept in a 12-h light/dark cycle (08:00–20:00). Experiments were carried out between 10:00 and 18:00 in a quiet and air-conditioned experimental room, in which mice were habituated for at least 30 min before each experiment. Animal experiments were performed in accordance with the guidelines of the Physiological Society of Japan and were approved by the Committees on Animal Experiments at Kansai Medical University and the Kurashiki University of Science and the Arts. Ostruthin was initially dissolved in DMSO at higher concentration (100 mM) and then diluted in phosphate-buffered saline (PBS). The diluted solution was mixed vigorously for more than 10 min before the experiments, and an equal volume of DMSO was added to PBS as a control. PBS and ostruthin were administered intraperitoneally 30 min before mice behavioral tests (0.01 ml/g body weight). Each animal was used only once, except for the wheel running test, which was carried out immediately after elevated plus maze.
The elevated plus maze apparatus consisted of four arms set in a cross pattern from a neutral central square (6 × 6 cm). Two opposite arms were delimited by vertical walls (closed arms, 30 × 15 × 6 cm), whereas the other two arms had unprotected edges (open arms, 30 × 6 cm). The maze was elevated 40 cm above the floor. At the beginning of each 5 min test session, a mouse was placed in the central neutral area, facing one of the open arms. The total number of the entries to open arms and time spent in the open arms were measured. After removal of the animal, the apparatus was cleaned and wiped.

[2] = test system: depression-like behavior of mice; experiment: tail suspension test; assay type: in vivo; details: amlodipine experiment: single compound vs PBS, ostruthin 5 mg/kg or amlodipine 10 mg/kg, n = 9 and 13
Excerpt: as §1
The tail suspension test was performed in accordance with a method reported previously. The mouse was hung on a hook using adhesive tape placed 2 cm from the extremity of its tail 50 cm above the table. The amount of time spent immobile was recorded for 5 min.

TREK-1 channel = molecular target: T1, TREK-1 channel (Homo sapiens, UniProt O95069); experiment: whole-cell patch-clamp of TREK-1 currents in TR-1 cells (293T stably expressing TREK-1); assay type: cell-based; details: bupivacaine 3 mM, after 100 μM ostruthin
T1 construct: expressed in transfected cells
T1 sequence (O95069 1-426): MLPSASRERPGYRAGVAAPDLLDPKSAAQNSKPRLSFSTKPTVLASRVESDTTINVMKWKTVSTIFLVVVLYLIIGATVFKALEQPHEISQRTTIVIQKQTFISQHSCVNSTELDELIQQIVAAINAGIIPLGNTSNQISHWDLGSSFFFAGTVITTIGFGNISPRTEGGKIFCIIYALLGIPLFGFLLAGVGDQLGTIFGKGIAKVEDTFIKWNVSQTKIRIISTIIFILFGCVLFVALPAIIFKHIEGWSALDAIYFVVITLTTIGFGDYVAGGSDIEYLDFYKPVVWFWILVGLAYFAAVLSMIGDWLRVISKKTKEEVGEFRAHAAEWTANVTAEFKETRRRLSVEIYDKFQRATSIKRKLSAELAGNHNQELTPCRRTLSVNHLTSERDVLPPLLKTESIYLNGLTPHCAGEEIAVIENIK
Excerpt: (§2) For recordings of K^+ channel currents, we prepared stable cell lines for TREK-1, TWIK-related acid-sensitive K^+ channel (TASK-1), strongly inwardly rectifying K^+ channel (Kir2.1), and human ether-a-go-go-related gene (HERG-1) channels and transiently expressed other channels in 293T cells using a calcium-phosphate transfection method. For the establishment of the stable lines, we used lentiviral vectors, and the preparation methods for the lentiviral vectors were described in our previous report. TR-1 cells, which stably expressed TREK-1 channel and were grown on a small cover glass (3 × 18 mm), were placed in a recording chamber with an internal volume of 200 μl. Whole-cell currents were recorded in Tyrode solution using an Axopatch 200B amplifier (Axon Instruments, Foster City, CA) at 25°C. […] Perfusion (100 μl/min) was continued to maintain the water level throughout recordings. pH and osmotic pressure of solutions were measured with a pH meter (Horiba, Kyoto, Japan) and a freezing point osmometer (Knauer, Berlin, Germany), respectively.
We previously prepared a lentiviral vector that expressed the TREK-1 channel and using this vector we established a cell line, TR-1, which stably expressed the channel. […] Immediately after whole-cell access, small outward currents were recorded in response to depolarizing step pulses (Fig 1A, 0 min). […]

TREK-2 channel [3] = molecular target: T2, TREK-2 channel (Homo sapiens, UniProt P57789); experiment: whole-cell patch-clamp of TREK-2 currents transiently expressed in 293T cells; assay type: cell-based; details: bupivacaine 3 mM, after ostruthin
T2 construct: expressed in transfected cells; host or cells: 293T (transient, calcium-phosphate transfection)
T2 sequence (P57789 1-538): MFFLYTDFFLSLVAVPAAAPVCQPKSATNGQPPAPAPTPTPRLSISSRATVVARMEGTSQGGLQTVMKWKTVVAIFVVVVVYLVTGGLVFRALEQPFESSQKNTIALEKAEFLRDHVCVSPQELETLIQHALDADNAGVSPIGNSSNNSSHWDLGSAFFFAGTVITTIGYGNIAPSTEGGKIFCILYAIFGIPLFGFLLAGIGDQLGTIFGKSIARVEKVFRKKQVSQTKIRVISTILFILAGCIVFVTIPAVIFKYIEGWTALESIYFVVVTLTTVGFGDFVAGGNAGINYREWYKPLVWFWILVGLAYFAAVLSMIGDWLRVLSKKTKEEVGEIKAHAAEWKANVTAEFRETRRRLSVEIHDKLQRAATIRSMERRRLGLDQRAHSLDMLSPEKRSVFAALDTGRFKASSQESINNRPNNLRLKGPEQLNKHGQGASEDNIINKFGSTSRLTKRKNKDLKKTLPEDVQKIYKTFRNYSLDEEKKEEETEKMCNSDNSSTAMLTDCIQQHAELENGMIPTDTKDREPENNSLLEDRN
Excerpt: as §2
TREK-1 channels are known to be activated by low pH and mechanical stretch. […] To test these possibilities, we measured the pH of Tyrode solution before and after addition of 100 μM ostruthin, and observed no significant change (from 7.31 ± 0.17 to 7.33 ± 0.22, p = 0.645, paired t-test, n = 6). […]

TREK-2 channel [4] = molecular target: T2, TREK-2 channel; parameters: method as in PMID 10880510; details: 100 μM; cited from earlier work

inhibition of the ostruthin-increased TREK-1 current (TREK-1 channel)	block of TREK-2 current (TREK-2 channel [3])	Structure (SMILES)	number of entries to the open arm [1]	time spent immobile [2]	sensitivity of TREK-2 channel to bupivacaine (TREK-2 channel [4])
–	–	CCOC(=O)C1=C(COCCN)NC(C)=C(C(=O)OC)C1c1ccccc1Cl (centres unmarked) [amlodipine, reference compound]	non-significantly decreased	non-significantly decreased	–
inhibited nearly completely	almost blocked the current	CCCCN1CCCCC1C(=O)Nc1c(C)cccc1C (centres unmarked) [bupivacaine, reference compound]	–	–	insensitive
